Results on three compounds are retold here after patent US11395847B2, “Acylated GLP-1/GLP-2 dual agonists” (Zealand Pharma A/S, priority 2016, dated 2022).

Data set [1] deals with Normal chow-fed C57BL/6J male mice. Briefly: Effect on fasting glucose and intestinal weight in normal mice. Conditions: for Small intestinal wet weight: 100 nmol/kg s.c. once daily for 4 days, sacrificed 24 hours after final dosing; for Fasting blood glucose: 100 nmol/kg s.c., day 0 after a single injection, fasted mice. The class given is in vivo. On the procedure: Normal chow-fed C57BL/6J male mice were used. The mice were kept in standard housing conditions, light-, temperature-, and humidity-controlled room (12:12 h light-dark cycle, with lights on at 06.00-18.00 h; 20-22° C.; 50-80% relative humidity). Each dosing group consisted of 6 animals. Mice were dosed once daily with 100 nmol/kg with the test compounds or vehicle for 4 days via subcutaneous administration.
On day 0 mice were fasted and blood glucose levels measured after a single s.c. injection with peptides. Animals were sacrificed 24 hours after final dosing on day 3, and small intestinal wet weights were measured.

For another data set, the target named is T1, human GLP-2 receptor (Homo sapiens, UniProt O95838, D470N).
T1 construct: expressed in transfected cells
T1 sequence (O95838 1-553 D470N): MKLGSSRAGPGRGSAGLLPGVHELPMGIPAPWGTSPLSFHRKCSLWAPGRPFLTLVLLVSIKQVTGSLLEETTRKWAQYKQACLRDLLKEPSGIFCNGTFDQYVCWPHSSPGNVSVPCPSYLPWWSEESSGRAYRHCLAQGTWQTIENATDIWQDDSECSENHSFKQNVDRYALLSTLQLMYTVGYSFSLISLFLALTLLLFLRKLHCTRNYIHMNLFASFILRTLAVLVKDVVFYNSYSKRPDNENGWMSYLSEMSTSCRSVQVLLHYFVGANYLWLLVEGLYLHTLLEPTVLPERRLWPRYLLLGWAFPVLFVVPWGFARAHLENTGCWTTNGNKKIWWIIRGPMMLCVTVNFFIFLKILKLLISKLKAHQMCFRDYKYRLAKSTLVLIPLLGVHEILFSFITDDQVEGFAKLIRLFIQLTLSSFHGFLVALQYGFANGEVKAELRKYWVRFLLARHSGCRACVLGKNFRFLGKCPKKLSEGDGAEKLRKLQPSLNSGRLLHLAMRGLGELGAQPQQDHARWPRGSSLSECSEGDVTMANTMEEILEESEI
Put plainly: GLP-2 receptor potency assay (cAMP ALPHASCREEN, HEK293 cells stably expressing GLP-2 R). The class given is cell-based. Conditions: cAMP response, HEK293 cells expressing human GLP-2 R; read-out: EC50 GLP-2. The method, boiled down:
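HEK293 clones stably transfected with the human GLP-2 receptor, selected with G418, were used. Intracellular cAMP was quantified by AlphaScreen. Responses were normalised to positive and vehicle controls, and EC50 and maximal response were taken from concentration-response curves.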
In general terms: Bead proximity is the source of the signal in Alpha formats.

Data set [2] can be described thus: Chemical stability (RP-HPLC normalized purity after incubation at 40° C.). It counts as physicochemical. Conditions: 14-day incubation, 0.2 mg/ml, normalized purity (area-%). The method, boiled down:
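Peptide at 0.2 mg/ml final in water adjusted to pH 6, 7, 7.5 or 9, incubated at 40° C for 14 days. Purity measured as main-peak area-% by C18 RP-HPLC (acetonitrile/TFA/water gradient, UV 220 nm) and normalized to T=0 set at 100 for each pH.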

The nature of data set [3]: Solubility assessment (turbidity absorbance at 325 nm). The class given is physicochemical. In outline:
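Peptide stock at 2 mg/ml in water at pH 2.5 diluted 1:1 into 100 mM acetate (pH 4.0, 5.0), histidine (pH 6.0, 7.0) or phosphate (pH 6.0, 7.0, 7.5) buffer. Absorbance at 280 and 325 nm read at ambient temperature (typically 25 °C), single samples (n=1).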

In another data set the target is T2, human GLP-1 receptor (Homo sapiens, UniProt P43220).
T2 construct: expressed in transfected cells
T2 sequence (P43220 24-463): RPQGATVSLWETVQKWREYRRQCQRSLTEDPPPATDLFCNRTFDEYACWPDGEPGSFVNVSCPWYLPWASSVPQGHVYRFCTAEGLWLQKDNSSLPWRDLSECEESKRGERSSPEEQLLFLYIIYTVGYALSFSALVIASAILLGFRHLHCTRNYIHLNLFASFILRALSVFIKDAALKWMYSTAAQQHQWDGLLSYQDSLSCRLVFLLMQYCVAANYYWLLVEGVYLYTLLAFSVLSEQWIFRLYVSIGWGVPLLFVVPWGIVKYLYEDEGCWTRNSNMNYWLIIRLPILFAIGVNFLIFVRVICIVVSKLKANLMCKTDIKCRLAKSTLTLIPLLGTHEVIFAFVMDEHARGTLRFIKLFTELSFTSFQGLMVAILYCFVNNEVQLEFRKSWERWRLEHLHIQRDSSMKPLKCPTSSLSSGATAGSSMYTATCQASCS
Briefly: GLP-1 receptor potency assay (cAMP ALPHASCREEN, HEK293 cells stably expressing GLP-1 R). Conditions: cAMP response, HEK293 cells expressing human GLP-1 R. It counts as cell-based. The method, boiled down:
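Clonal HEK293 line stably transfected with human GLP-1R (G418-selected) was treated with test compounds and the cAMP response quantified by ALPHASCREEN. Signals were normalized to positive control and vehicle, with EC50 and maximal response taken from concentration-response curves.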

Where two headings read alike, the source gives them in different places. Where a SMILES comes first, the peptide text is derived from it. Some results are limits rather than exact numbers.

Regarding `CC[C@H](C)[C@H](NC(=O)[C@H](Cc1ccccc1)NC(=O)[C@H](CC(=O)O)NC(=O)[C@H](CCCNC(=N)N)NC(=O)[C@H](C)NC(=O)[C@H](C)NC(=O)[C@H](CCCCNC(=O)CC[C@H](NC(=O)CCCCCCCCCCCCCCCCC(=O)O)C(=O)O)NC(=O)CNC(=O)[C@H](CC(=O)O)NC(=O)[C@H](CC(C)C)NC(=O)[C@@H](NC(=O)[C@@H](NC(=O)[C@H](C)NC(=O)[C@H](CC(C)C)NC(=O)[C@H](CCC(=O)O)NC(=O)[C@H](CO)NC(=O)[C@@H](NC(=O)[C@H](Cc1ccccc1)NC(=O)[C@@H](NC(=O)CNC(=O)[C@H](CCC(=O)O)NC(=O)C(C)(C)NC(=O)[C@@H](N)Cc1c[nH]cn1)[C@@H](C)O)[C@@H](C)O)[C@@H](C)O)[C@@H](C)CC)C(=O)N[C@@H](C)C(=O)N[C@@H](Cc1c[nH]c2ccccc12)C(=O)N[C@@H](CC(C)C)C(=O)N[C@H](C(=O)N[C@@H](CCC(=O)O)C(=O)N[C@@H](Cc1c[nH]cn1)C(=O)N[C@@H](CCCCN)C(=O)N[C@H](C(=O)N[C@H](C(=O)N[C@@H](CC(=O)O)C(=O)O)[C@@H](C)O)[C@@H](C)CC)[C@@H](C)CC` [Compound 9] (HELM PEPTIDE1{H.[Aib].E.G.T.F.T.S.E.L.A.T.I.L.D.G.K.A.A.R.D.F.I.A.W.L.I.E.H.K.I.T.D}|PEPTIDE2{[O=C(O)CCCCCCCCCCCCCCCCC(=O)[*:2]].[gGlu]}$PEPTIDE1,PEPTIDE2,17:R3-2:R2$$$V2.0), in data set [1], the “Small intestinal wet weight” value was determined as 1.11 g and the Fasting blood glucose was 4.98 mM. The half-maximal effective concentration (EC50) on human GLP-2 receptor came out at 0.056 nM.
`CC[C@H](C)[C@H](NC(=O)[C@H](Cc1ccccc1)NC(=O)[C@H](CC(=O)O)NC(=O)[C@H](CCCNC(=N)N)NC(=O)[C@H](C)NC(=O)[C@H](C)NC(=O)[C@H](CCC(N)=O)NC(=O)[C@H](CCCCNC(=O)CC[C@H](NC(=O)CCCCCCCCCCCCCCCCC(=O)O)C(=O)O)NC(=O)[C@H](CC(=O)O)NC(=O)[C@H](CC(C)C)NC(=O)[C@@H](NC(=O)[C@@H](NC(=O)[C@H](C)NC(=O)[C@H](CC(C)C)NC(=O)[C@H](CCC(=O)O)NC(=O)[C@H](CO)NC(=O)[C@@H](NC(=O)[C@H](Cc1ccccc1)NC(=O)[C@H](CO)NC(=O)CNC(=O)[C@H](CCC(=O)O)NC(=O)C(C)(C)NC(=O)[C@@H](N)Cc1c[nH]cn1)[C@@H](C)O)[C@@H](C)O)[C@@H](C)CC)C(=O)N[C@@H](C)C(=O)N[C@@H](Cc1c[nH]c2ccccc12)C(=O)N[C@@H](CC(C)C)C(=O)N[C@H](C(=O)N[C@@H](CCC(N)=O)C(=O)N[C@@H](Cc1c[nH]cn1)C(=O)N[C@@H](CCCCN)C(=O)N[C@H](C(=O)N[C@H](C(=O)N[C@@H](CC(=O)O)C(=O)O)[C@@H](C)O)[C@@H](C)CC)[C@@H](C)CC` [Compound 18] (HELM PEPTIDE1{H.[Aib].E.G.S.F.T.S.E.L.A.T.I.L.D.K.Q.A.A.R.D.F.I.A.W.L.I.Q.H.K.I.T.D}|PEPTIDE2{[O=C(O)CCCCCCCCCCCCCCCCC(=O)[*:2]].[gGlu]}$PEPTIDE1,PEPTIDE2,16:R3-2:R2$$$V2.0): the “pH 6 normalized stability” value in data set [2] (pH 6, 40° C.) is “A (>90% normalised stability)”. Moreover, in data set [2] (pH 7, 40° C.), the “pH 7 normalized stability” value is given as “A (>90% normalised stability)”. In data set [1], the “Small intestinal wet weight” value was 1.37 g. The compound further showed a Fasting blood glucose in data set [1] of 5.26 mM. In addition, the solubility in data set [3] (100 mM acetate buffer pH 4.0, ambient temperature, read-out: Solubility Acetate buffer pH 4) was less than 1000 µg/mL; in data set [3] (100 mM acetate buffer pH 5.0, ambient temperature, read-out: Solubility Acetate buffer pH 5), less than 1000 µg/mL; in data set [3] (100 mM histidine buffer pH 6.0, ambient temperature, read-out: Solubility Histidine buffer pH 6), not below 1000 µg/mL; in data set [3] (100 mM histidine buffer pH 7.0, ambient temperature, read-out: Solubility Histidine buffer pH 7), not below 1000 µg/mL; in data set [3] (100 mM phosphate buffer pH 6.0, ambient temperature, read-out: Solubility Phosphate buffer pH 6), not below 1000 µg/mL; in data set [3] (100 mM phosphate buffer pH 7.0, ambient temperature, read-out: Solubility Phosphate buffer pH 7) it was not below 1000 µg/mL. The solubility in data set [3] (100 mM phosphate buffer pH 7.5, ambient temperature, read-out: Solubility Phosphate buffer pH 7.5) was not below 1000 µg/mL.
Take `CC[C@H](C)[C@H](NC(=O)[C@H](Cc1ccccc1)NC(=O)[C@H](CC(=O)O)NC(=O)[C@H](CCCNC(=N)N)NC(=O)[C@H](C)NC(=O)[C@H](C)NC(=O)[C@H](CCC(N)=O)NC(=O)[C@H](CCCCNC(=O)COCCOCCNC(=O)[C@H](CCCCN)NC(=O)[C@H](CCC(=O)O)NC(=O)[C@H](CCCCN)NC(=O)CC[C@H](NC(=O)CCCCCCCCCCCCCCCCCCC(=O)O)C(=O)O)NC(=O)[C@H](CC(=O)O)NC(=O)[C@H](CC(C)C)NC(=O)[C@@H](NC(=O)[C@@H](NC(=O)[C@H](C)NC(=O)[C@H](CC(C)C)NC(=O)[C@H](CCC(=O)O)NC(=O)[C@H](CO)NC(=O)[C@H](CO)NC(=O)[C@H](Cc1ccccc1)NC(=O)[C@@H](NC(=O)CNC(=O)[C@H](CCC(=O)O)NC(=O)C(C)(C)NC(=O)[C@@H](N)Cc1c[nH]cn1)[C@@H](C)O)[C@@H](C)O)[C@@H](C)CC)C(=O)N[C@@H](C)C(=O)N[C@@H](Cc1c[nH]c2ccccc12)C(=O)N[C@@H](CC(C)C)C(=O)N[C@H](C(=O)N[C@@H](CCC(=O)O)C(=O)N[C@@H](Cc1c[nH]cn1)C(=O)N[C@@H](CCCCN)C(=O)N[C@H](C(=O)N[C@H](C(=O)N[C@@H](CC(=O)O)C(=O)O)[C@@H](C)O)[C@@H](C)CC)[C@@H](C)CC` [Compound 50] (HELM PEPTIDE1{H.[Aib].E.G.T.F.S.S.E.L.A.T.I.L.D.K.Q.A.A.R.D.F.I.A.W.L.I.E.H.K.I.T.D}|PEPTIDE2{[O=C(O)CCCCCCCCCCCCCCCCCCC(=O)[*:2]].[gGlu].K.E.K.[O=C(COCCOCCN[*:1])[*:2]]}$PEPTIDE1,PEPTIDE2,16:R3-6:R2$$$V2.0): in data set [1], the “Small intestinal wet weight” value amounted to 1.43 g and the Fasting blood glucose turned out to be 5.57 mM. Besides, the EC50 at human GLP-2 receptor turned out to be 0.056 nM. The compound also had a concentration giving a half-maximal response (EC50) on human GLP-1 receptor of 0.31 nM.

Broadly, the EC50 is the concentration needed to bring the measured effect to its halfway point. What is called solubility is how much of the substance goes into solution per volume.
